The target of one experiment is T1, FPR (Homo sapiens, UniProt P21462).
T1 sequence (P21462 1-350): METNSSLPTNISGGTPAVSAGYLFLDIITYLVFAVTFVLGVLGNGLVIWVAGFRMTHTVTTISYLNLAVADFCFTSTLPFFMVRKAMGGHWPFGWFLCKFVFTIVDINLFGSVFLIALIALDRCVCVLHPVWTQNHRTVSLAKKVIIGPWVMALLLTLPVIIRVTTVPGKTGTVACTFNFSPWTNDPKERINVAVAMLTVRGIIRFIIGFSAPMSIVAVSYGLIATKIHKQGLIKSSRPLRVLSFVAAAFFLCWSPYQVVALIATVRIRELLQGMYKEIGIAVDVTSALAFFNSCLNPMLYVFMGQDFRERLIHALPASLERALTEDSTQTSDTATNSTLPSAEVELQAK
In words: IP3 assay, HEK293 cells transiently transfected with FPR (negative control). More on the design: Full-Length Cloning of Human GPCRs; expressed in transfected cells; host or cells: HEK293 cells, transient. To be noted: not shown. The format is cell-based.

In the next experiment the target is T2, FPRL1 (Homo sapiens, UniProt P25090).
T2 sequence (P25090 1-351): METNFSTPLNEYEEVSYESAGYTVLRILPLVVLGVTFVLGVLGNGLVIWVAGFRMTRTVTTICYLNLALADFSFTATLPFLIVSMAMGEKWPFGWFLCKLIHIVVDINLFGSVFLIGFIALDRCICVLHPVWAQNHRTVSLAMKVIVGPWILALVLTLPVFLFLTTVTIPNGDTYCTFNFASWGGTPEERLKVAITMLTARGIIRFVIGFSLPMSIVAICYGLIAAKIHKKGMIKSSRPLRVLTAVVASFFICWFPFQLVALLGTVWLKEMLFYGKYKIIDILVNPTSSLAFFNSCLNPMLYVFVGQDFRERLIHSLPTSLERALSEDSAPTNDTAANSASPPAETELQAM
Kind of experiment: Whole cell adenylate cyclase (cAMP) assay, stably transfected HEK293 cells. The format is cell-based. To be noted: in the presence of 5 μM forskolin, FIG. 6. The source says: A Flash Plate™ Adenylyl Cyclase kit (New England Nuclear; Cat. No. SMP004A) designed for cell-based assays can be modified for use with crude plasma membranes. The Flash Plate wells can contain a scintillant coating which also contains a specific antibody recognizing cAMP. The cAMP generated in the wells can be quantitated by a direct competition for binding of radioactive cAMP tracer to the cAMP antibody. The following serves as a brief protocol for the measurement of changes in cAMP levels in whole cells that express the receptors.
Transfected cells are harvested approximately twenty four hours after transient transfection. Media is carefully aspirated off and discarded. 10 ml of PBS is gently added to each dish of cells followed by careful aspiration. 1 ml of Sigma cell dissociation buffer and 3 ml of PBS are added to each plate. Cells are pipetted off the plate and the cell suspension is collected into a 50 ml conical centrifuge tube. Cells are then centrifuged at room temperature at 1,100 rpm for 5 min. The cell pellet is carefully re-suspended into an appropriate volume of PBS (about 3 ml/plate). The cells are then counted using a hemocytometer and additional PBS is added to give the appropriate number of cells (with a final volume of about 50 μl/well). […]
In FIG. 6, agonist activity was determined through adenylate cyclase activity. […] Samples were then assessed for the level of intracellular cAMP as described in Example 4, supra.

Experiment [1] concerns serum-deprived differentiated SH-SY5Y cells. Kind of experiment: Cell death of serum-deprived differentiated SH-SY5Y cells. To be noted: serum-free medium 6 days; LDH assay (panel A) or Trypan Blue staining (panel B); FIG. 10. The experiment is classed as cell-based, human. As for the experimental part:
Briefly, SH-SY5Y cells were differentiated into neuronal-like cells by treatment with retinoic acid (10 μM) for five days followed by treatment with BDNF (10 ng/ml) for two days. […] Cell viability was determined by lactate dehydrogenase (LDH) assay (Roche, Indianapolis, Ind.; catalog no. 1644793) or by trypan blue staining. LDH is a stable cytoplasmic enzyme present in all cells which is rapidly released upon damage to the plasma membrane. The level of LDH is inversely proportional to the number of viable cells. The LDH assay was carried out as per manufacturer's instructions.

“Also recorded” adds a separate entry of the source. Where no end group is shown, it is not given here.

For `CC[C@H](C)[C@H](NC(=O)[C@H](CCC(=O)O)NC(=O)[C@H](CO)NC(=O)[C@@H](NC(=O)[C@H](CC(C)C)NC(=O)[C@H](CC(C)C)NC(=O)[C@H](CC(C)C)NC(=O)[C@H](CC(C)C)NC(=O)[C@H](CS)NC(=O)[C@H](CO)NC(=O)[C@H](Cc1ccccc1)NC(=O)CNC(=O)[C@H](CCCNC(=N)N)NC(=O)[C@@H]1CCCN1C(=O)[C@H](C)NC(=O)[C@@H](N)CCSC)[C@@H](C)O)C(=O)N[C@@H](CC(=O)O)C(=O)N[C@@H](CC(C)C)C(=O)N1CCC[C@H]1C(=O)N[C@H](C(=O)N[C@@H](CCCCN)C(=O)N[C@@H](CCCNC(=N)N)C(=O)N[C@@H](CCCNC(=N)N)C(=O)N[C@@H](C)C(=O)O)C(C)C` [Humanin], at FPR, the “IP3 response in HEK293 cells transiently transfected with FPR” value is “no IP3 response”. Further, the “Agonist activity at FPRL1, intracellular cAMP” value on FPRL1 was “agonists of both FPRL1 and FPRL2”; at FPRL1 (listed as Human) it was “agonists of both FPRL2 and FPRL1”. For the same compound, the “Inhibition of cell death of serum-deprived SH-SY5Y cells” value in experiment [1] was “inhibit cell death”.

In the case of `CC(C)c1ccc2c(c1)CCC1C(C)(C(N)=O)CCCC21C` (stereo not shown) [Compound 1, 7-Isopropyl-1,4a-dimethyl-1,2,3,4,4a,9,10,10a-octahydro-phenanthrene-1-carboxylic acid amide], the “IP3 response in HEK293 cells transiently transfected with FPR” value on FPR is listed as “no IP3 response”. Further, the “Inhibition of cell death of serum-deprived SH-SY5Y cells” value in experiment [1] is “inhibit cell death”.

On to “MAPRGFSCLLLLTGEIDLPVKRRA [[Gly14]-Humanin]”, for which the “Agonist activity at FPRL1, intracellular cAMP” value on FPRL1 is “agonists of both FPRL1 and FPRL2; also recorded: agonists of both FPRL2 and FPRL1”.

(Values after US7776558B2, “Human G protein-coupled receptor and modulators thereof for the treatment of cell death-related disorders” (Arena Pharmaceuticals, Inc., priority 2003, dated 2010).)
